Measured values as given in patent publication US5244795A, “Processes for preparing cholesterol lowering compounds” (Merck & Co., Inc., priority 1992, dated 1993).

What was measured:
Experiment in all cases: FISP disc diffusion assay
Type in all cases: cell-based
Aspergillus niger = tested on: Aspergillus niger; parameters: key to zone quality qualifier: F: clear zone, fuzzy edges; S: slightly hazy zone (some growth observed throughout zone); H: hazy zone (considerable growth observed throughout zone); V: very hazy zone (zone of inhibition is barely discernable); R: zone displays a ring of resistant growth; no qualifier: clear zone throughout, sharp edges; settings: 250 μg/ml in CH2Cl2
Excerpt: (§1) The FISP assay employs disc diffusion susceptibility testing methods to generate a spectrum of activity against a panel of representative yeasts, filamentous fungi and bacteria.
The filamentous fungi used in the assay were Penicillium sp. Aspergillus niger, Trichoderma sp., Phoma sp., Trichoderma lignorum, Fusarium oxysporum, Ustilago maydis, Ceratocystis ulmi, Alternaria soloni, Verticillium serrae, Botrytis allii, Scopulariopsis communis, Cephalosporium sp., Cercospora beticola, Rhizomucor miehei, Aspergillus flavus and Aspergillus fumigatus.
(§2) For carrying out the assay, seeded assay plates are prepared in the following manner according to the type of assay strain.
Inocula for filamentous fungi are prepared by scraping the surface of stock plates maintained on potato dextrose agar with a moistened sterile dacron swab. The spores and mycelia are then suspended in 10 milliliters of sterile potato dextrose broth and adjusted to 65 percent transmission at 660 nm. […]
(§3) Following incubation, the inhibition zones are measured and recorded. […]
(§4) FISP data is reported as the diameter (in mm.) of the zone of inhibition of growth in agar diffusion assays. The zone is determined by measuring growth that differs from the background lawn. […]

Streptomyces sp. = tested on: Streptomyces sp.; parameters: key: F: clear zone, fuzzy edges; S: slightly hazy zone (some growth observed throughout zone); H: hazy zone (considerable growth observed throughout zone); V: very hazy zone (zone of inhibition is barely discernable); R: zone displays a ring of resistant growth; no qualifier: clear zone throughout, sharp edges; settings: 250 μg/ml in CH2Cl2
Protocol: as §1
(§5) The bacteria employed in the assay are Streptomyces sp., Acholeplasma laidlawii and Bacillus subtilis.
as §2
(§6) Inocula for yeasts and bacterial strains are prepared from overnight broth cultures then diluted into potato dextrose agar to a final concentration of either 40 percent or 70 percent transmission at 660 nm.
(§7) The seeded agar media thus prepared are dispensed into petri dishes for assays (11 ml per dish).
The samples to be tested for production of antifungal agent are applied to 6.2 mm filter paper discs (25 μl/disc) and air dried at 24° C. When the sample to be tested is crude broth, it may be centrifuged prior to application. The discs bearing the material to be tested are then applied employing sterile conditions to the seeded assay plates. The assay plates are then incubated at either 28° C. or 37° C. for 24 hours. […]
as §3, §4

Bacillus subtilis = settings: 250 μg/ml in CH2Cl2
Protocol: as §1, §5, §2, §6
Seeded agar for Bacillus subtilis are prepared from a commercially available spore suspension which is diluted directly into molten agar (45° C.) to obtain a final concentration of 0.1 percent.
as §7
The samples to be tested for production of antifungal agent are applied to 6.2 mm filter paper discs (25 μl/disc) and air dried at 24° C. When the sample to be tested is crude broth, it may be centrifuged prior to application. […]
as §3, §4

[1] = tested on: Brettanomyces bruxellensis; parameters: key: F: clear zone, fuzzy edges; S: slightly hazy zone (some growth observed throughout zone); H: hazy zone (considerable growth observed throughout zone); V: very hazy zone (zone of inhibition is barely discernable); R: zone displays a ring of resistant growth; no qualifier: clear zone throughout, sharp edges; settings: 250 μg/ml in CH2Cl2
Excerpt: as §1
(§8) The yeasts employed in the assay are Saccharomyces cerevisiae, Candida albicans, Candida tropicalis, Candida rugosa, Brettanomyces bruxellensis, Torulospora hansenii, Candida guilliermondi, Candida pseudotropicalis, Torulopsis glabrata, Cryptococcus albidus, Cryptococcus laurentii and Kluyveromyces fragilis.
as §2, §6
(§9) Assay plates for the yeasts and filamentous fungi are prepared by diluting the inoculum into appropriate molten agar medium, cooled to 45° C. to obtain a final concentration of 4 percent.
as §7
(§10) The samples to be tested for production of antifungal agent are applied to 6.2 mm filter paper discs (25 μl/disc) and air dried at 24° C. When the sample to be tested is crude broth, it may be centrifuged prior to application. The discs bearing the material to be tested are then applied employing sterile conditions to the seeded assay plates. The assay plates are then incubated at either 28° C. or 37° C. for 24 hours. In one of the assays for Bacillus subtilis, the sample is applied to a disc previously impregnated with 4M potassium chloride at 25 μl/disc and then air dried.
(§11) Following incubation, the inhibition zones are measured and recorded. The measurements are made from the extreme edge where growth differs from the background zone. The zones are noted as to appearance as fuzzy edge and clear center, hazy throughout, slightly hazy, very hazy or ringed.
(§12) FISP data is reported as the diameter (in mm.) of the zone of inhibition of growth in agar diffusion assays. The zone is determined by measuring growth that differs from the background lawn. A qualifier is also added to describe the zone quality as listed below: no qualifier: clear zone throughout, sharp edges

Candida rugosa = tested on: Candida rugosa; parameters: key: F: clear zone, fuzzy edges; S: slightly hazy zone (some growth observed throughout zone); H: hazy zone (considerable growth observed throughout zone); V: very hazy zone (zone of inhibition is barely discernable); R: zone displays a ring of resistant growth; no qualifier: clear zone throughout, sharp edges; settings: 250 μg/ml in CH2Cl2
Excerpt: as §1, §8, §2, §6, §9, §7, §10, §11, §12

Candida tropicalis = tested on: Candida tropicalis; parameters: key: F: clear zone, fuzzy edges; S: slightly hazy zone (some growth observed throughout zone); H: hazy zone (considerable growth observed throughout zone); V: very hazy zone (zone of inhibition is barely discernable); R: zone displays a ring of resistant growth; no qualifier: clear zone throughout, sharp edges; settings: 250 μg/ml in CH2Cl2
Excerpt: as §1, §8, §2, §6, §9, §7, §10, §11, §12

Cryptococcus laurentii = tested on: Cryptococcus laurentii; parameters: key: F: clear zone, fuzzy edges; S: slightly hazy zone (some growth observed throughout zone); H: hazy zone (considerable growth observed throughout zone); V: very hazy zone (zone of inhibition is barely discernable); R: zone displays a ring of resistant growth; no qualifier: clear zone throughout, sharp edges; settings: 250 μg/ml in CH2Cl2
Excerpt: as §1, §8, §2, §6, §9, §7, §10, §11, §12

Kluyveromyces fragilis = tested on: Kluyveromyces fragilis; parameters: key: F: clear zone, fuzzy edges; S: slightly hazy zone (some growth observed throughout zone); H: hazy zone (considerable growth observed throughout zone); V: very hazy zone (zone of inhibition is barely discernable); R: zone displays a ring of resistant growth; no qualifier: clear zone throughout, sharp edges; settings: 250 μg/ml in CH2Cl2
Excerpt: as §1, §8, §2, §6, §9, §7, §10, §11, §12

Torulospora hansenii = tested on: Torulospora hansenii; parameters: key: F: clear zone, fuzzy edges; S: slightly hazy zone (some growth observed throughout zone); H: hazy zone (considerable growth observed throughout zone); V: very hazy zone (zone of inhibition is barely discernable); R: zone displays a ring of resistant growth; no qualifier: clear zone throughout, sharp edges; settings: 250 μg/ml in CH2Cl2
Excerpt: as §1, §8, §2, §6, §9, §7, §10, §11, §12

Saccharomyces cerevisiae = tested on: Saccharomyces cerevisiae; parameters: key to zone quality qualifier: F: clear zone, fuzzy edges; S: slightly hazy zone (some growth observed throughout zone); H: hazy zone (considerable growth observed throughout zone); V: very hazy zone (zone of inhibition is barely discernable); R: zone displays a ring of resistant growth; no qualifier: clear zone throughout, sharp edges; settings: 250 μg/ml in CH2Cl2
Excerpt: as §1, §8, §2, §6
For three strains of Candida albicans and one strain of Saccharomyces cerevisiae, sterile saline is employed in place of potato dextrose broth.
as §9, §7, §10, §11, §12

Candida guilliermondii = settings: Meyerozyma guilliermondii; 250 μg/ml in CH2Cl2; read-out: diameter of the zone of inhibition of growth
Excerpt: as §1, §8, §2, §6, §9
(§13) The seeded agar media thus prepared are dispensed into petri dishes for assays (11 ml per dish). […]
as §3, §4

Torulopsis glabrata = settings: Nakaseomyces glabratus; 250 μg/ml in CH2Cl2; read-out: diameter of the zone of inhibition of growth
Excerpt: as §1, §8, §2, §6, §9, §13, §3, §4

## CC(/C=C/C=C(\C)C(O)C(C)C(=O)O[C@H]1C[C@H](C)C=C2C=C[C@@]3(C)O[C@@H](O)CC(=O)[C@]3(C)[C@H]21)=C\C=C\C(=O)O (stereo partly shown) [Compound A]
Aspergillus niger
  zone quality qualifier: H
Aspergillus niger; Aspergillus niger, read-out: diameter of the zone of inhibition of growth
  zone of inhibition at 250 µg/mL: 0 mm
Streptomyces sp.
  zone quality qualifier: V
Bacillus subtilis; KCl (disc impregnated with 4M potassium chloride)
  diameter of the zone of inhibition of growth: 0 mm
Bacillus subtilis; Bacillus subtilis, read-out: diameter of the zone of inhibition of growth
  zone of inhibition at 250 µg/mL: 0 mm
[1]
  zone quality qualifier: S
Candida rugosa
  zone quality qualifier: S
Candida tropicalis
  zone quality qualifier: S
Cryptococcus laurentii
  zone quality qualifier: H and V
Kluyveromyces fragilis
  zone quality qualifier: V
Torulospora hansenii
  zone quality qualifier: H
Saccharomyces cerevisiae
  zone quality qualifier: H
Saccharomyces cerevisiae; YNB
  zone quality qualifier: H
Saccharomyces cerevisiae; Saccharomyces cerevisiae, read-out: diameter of the zone of inhibition of growth
  zone of inhibition at 250 µg/mL: 0 mm
Candida guilliermondii
  zone of inhibition at 250 µg/mL: 0 mm
Torulopsis glabrata
  zone of inhibition at 250 µg/mL: 0 mm
